Values after ≈ are worked out from the molar mass of the structure shown. “Also recorded” adds a separate entry of the source.
What was measured:
Format in all cases: physicochemical
[1] = Solubility study: saturated solutions in SGF and FeSSIF, concentration by HPLC; conditions: for Solubility FeSSIF: FeSSIF (fed state simulated intestinal fluids, pH=5.0)
Text: High Performance Liquid Chromatography (HPLC) data in the present disclosure were collected from an Agilent 1260 with Diode Array Detector (DAD). The HPLC method parameters for purity test in the present disclosure are as follows: • 1. Column: Waters XBridge C18 150×4.6 mm, 5 μm • 2. Mobile Phase: A: 0.1% TFA in H2O • B: 0.1% TFA in Acetonitrile
The prepared apabetalone Form CS2 was suspended into SGF (simulated gastric fluids) and FeSSIF (fed state simulated intestinal fluids, pH=5.0) to obtain saturated solutions. After being equilibrated for 1 h and 24 h, concentrations of the saturated solutions were measured by HPLC.
The prepared Form CS8 was suspended into SGF (simulated gastric fluids) and FeSSIF (fed state simulated intestinal fluids, pH=5.0) to obtain saturated solutions. After being equilibrated for 1 h, concentrations of the saturated solutions were measured by HPLC.
The prepared Form CS13 was suspended into SGF (simulated gastric fluids) and FeSSIF (fed state simulated intestinal fluids, pH=5.0) to obtain saturated solutions. After being equilibrated for 1 h, 4 h and 24 h, concentrations of the saturated solutions were measured by HPLC.
The prepared apabetalone Form CS20 was suspended into SGF (simulated gastric fluids) and FeSSIF (fed state simulated intestinal fluids, pH=5.0) to obtain saturated solutions. After being equilibrated for 1 h, 4 h and 24 h, concentrations of the saturated solutions were measured by HPLC.
The prepared solid of apabetalone Form CS1 was suspended into SGF (simulated gastric fluids) and FeSSIF (fed state simulated intestinal fluids, pH=5.0) to obtain saturated solutions. After being equilibrated for 1 h, 4 h and 24 h, concentrations of the saturated solutions were measured by HPLC.
The prepared solid of apabetalone Form CS7 was suspended into SGF (simulated gastric fluids) and FeSSIF (fed state simulated intestinal fluids, pH=5.0) to obtain saturated solutions. After being equilibrated for 1 h, 4 h and 24 h, concentrations of the saturated solutions were measured by HPLC.
The prepared solid of apabetalone Form CS9 was suspended into SGF (simulated gastric fluids) and FeSSIF (fed state simulated intestinal fluids, pH=5.0) to obtain saturated solutions. After being equilibrated for 1 h, 4 h and 24 h, concentrations of the saturated solutions were measured by HPLC.
The prepared solid of apabetalone Form CS11 was suspended into SGF (simulated gastric fluids) and FeSSIF (fed state simulated intestinal fluids, pH=5.0) to obtain saturated solutions. After being equilibrated for 1 h, 4 h and 24 h, concentrations of the saturated solutions were measured by HPLC.
The prepared solid of apabetalone Form CS4 was suspended into SGF (simulated gastric fluids) and FeSSIF (fed state simulated intestinal fluids, pH=5.0) to obtain saturated solutions. After being equilibrated for 1 h, 4 h and 24 h, concentrations of the saturated solutions were measured by HPLC.

[2] = Hygroscopicity by dynamic vapor sorption (DVS); conditions: for Hygroscopicity class: Chinese Pharmacopoeia 2015 criteria, 80% RH; for Hygroscopicity class / Weight Gain under 80% Relative Humidity: 25° C.; for Weight Gain under 80% Relative Humidity: DVS, about 10 mg of sample; for Form change after DVS test (XRPD): XRPD before and after DVS test
Method: Dynamic Vapor Sorption (DVS) was measured via a SMS (Surface Measurement Systems Ltd.) intrinsic DVS instrument. Its control software is DVS—Intrinsic control software, and its analysis software is DVS—Intrinsic Analysis software. Typical Parameters for DVS test are as follows: • Temperature: 25° C. • Gas and flow rate: N2, 200 mL/min • dm/dt: 0.002%/min • RH range: 0% RH to 95% RH Dynamic vapor sorption (DVS) was applied to test hygroscopicity of Form CS8 in the present disclosure with about 10 mg of sample. […] Dynamic vapor sorption (DVS) was applied to test hygroscopicity of Form CS1 of the present disclosure with about 10 mg of sample. […] Dynamic vapor sorption (DVS) was applied to test hygroscopicity of Form CS7 of the present disclosure with about 10 mg of samples. Dynamic vapor sorption (DVS) was applied to test hygroscopicity of Form CS9 of the present disclosure with about 10 mg of sample. […] Dynamic vapor sorption (DVS) was applied to test hygroscopicity of Form CS4 of the present disclosure with about 10 mg of sample.

[3] = Stability study: open-dish storage in constant temperature and humidity chambers, XRPD and purity check; conditions: for Form change and purity decrease after storage: open dish
Method: Form CS8 was placed in a constant temperature and humidity chamber at 25° C./60% RH for 2 weeks in open dish. Crystalline form of the sample were tested by XRPD and impurity of the sample were checked. […] Crystalline form of the sample were tested by XRPD and impurity of the sample were checked. […] Two samples of apabetalone Form CS1 were placed in constant temperature and humidity chambers at 25° C./60% RH and 40° C./75% RH for 10 months in open dishes. The samples were characterized by XRPD and chemical impurity. […] Three samples of apabetalone Form CS7 were placed in constant temperature and humidity chambers at 25° C./60% RH and 40° C./75% RH for 4 weeks and 80° C. for 1 day in open dishes. Crystalline form of the sample were tested by XRPD and impurity of the sample were checked. […] Two samples of apabetalone Form CS9 were placed in constant temperature and humidity chambers at 25° C./60% RH and 40° C./75% RH for 10 months in open dishes. Crystalline form of the sample were tested by XRPD and impurity of the sample were tested to check the stability of Form CS9. […] Two samples of apabetalone Form CS11 were placed in constant temperature and humidity chambers at 25° C./60% RH and 40° C./75% RH for 6 weeks in open dishes. Crystalline form of the sample were tested by XRPD and impurity of the sample were tested to check the stability of Form CS11. […] Two samples of apabetalone Form CS4 were placed in open dishes in constant temperature and humidity chambers at 25° C./60% RH and 40° C./75% RH for 10 months. Crystalline form of the sample were tested by XRPD and impurity of the sample were tested to check the stability of Form CS4.

[4] = SGF (simulated gastric fluids), equilibrated 1 h
[5] = SGF (simulated gastric fluids), equilibrated 4 h
[6] = SGF (simulated gastric fluids), equilibrated 24 h

Row | Structure (SMILES) | Solubility FeSSIF ([1]; equilibrated 1 h) | Solubility FeSSIF ([1]; equilibrated 24 h) | Solubility SGF [1, 4] | Weight Gain under 80% Relative Humidity [2] | Form change after DVS test (XRPD) [2] | Time the form is stable when stored ([3]; 25° C./60% RH) | Time the form is stable when stored ([3]; 40° C./75% RH) | Solubility FeSSIF ([1]; equilibrated 4 h) | Solubility SGF [1, 5] | Solubility SGF [1, 6] | Hygroscopicity class [2] | other results
1 | COc1cc(OC)c2c(=O)[nH]c(-c3cc(C)c(OCCO)c(C)c3)nc2c1 [Form CS2, 2-[4-(2-hydroxyethoxy)-3,5-dimethylphenyl]-5,7-dimethoxyquinazolin-4(3H)-one] | 150 µg/mL (≈ 405 µM) | 240 µg/mL (≈ 648 µM) | 490 µg/mL (≈ 1320 µM) |  |  |  |  |  |  |  |  | solubility at 24 h ([1]; SGF (simulated gastric fluids), simulated gastric fluid, thermodynamic from solid, equilibrated 24 h): 610 µg/mL (≈ 1650 µM)
2 | COc1cc(OC)c2c(=O)[nH]c(-c3cc(C)c(OCCO)c(C)c3)nc2c1 [Form CS7, 2-[4-(2-hydroxyethoxy)-3,5-dimethylphenyl]-5,7-dimethoxyquinazolin-4(3H)-one] | 190 µg/mL (≈ 513 µM) | 290 µg/mL (≈ 783 µM) | 380 µg/mL (≈ 1030 µM) | 0.79% | No form change | at least 4 weeks | at least 4 weeks | 170 µg/mL (≈ 459 µM) | 420 µg/mL (≈ 1130 µM) | 580 µg/mL (≈ 1570 µM) | slightly hygroscopic (Increase in mass is less than 2 percent and equal to or greater than 0.2 percent) | Form change and purity decrease after storage ([3]; 25° C./60% RH, 4 weeks): No form change and obvious purity decrease; Form change and purity decrease after storage ([3]; 40° C./75% RH, 4 weeks): No form change and obvious purity decrease; Form change and purity decrease after storage ([3]; 80° C., 1 day): No form change and obvious purity decrease
3 | COc1cc(OC)c2c(=O)[nH]c(-c3cc(C)c(OCCO)c(C)c3)nc2c1 [Form CS8, 2-[4-(2-hydroxyethoxy)-3,5-dimethylphenyl]-5,7-dimethoxyquinazolin-4(3H)-one] | 280 µg/mL (≈ 756 µM) |  | 430 µg/mL (≈ 1160 µM) | 0.34% | No form change | at least 2 weeks |  |  |  |  | slightly hygroscopic (Increase in mass is less than 2 percent and equal to or greater than 0.2 percent) | Form change and purity decrease after storage ([3]; 25° C./60% RH, 2 weeks): No obvious form change and purity decrease
4 | COc1cc(OC)c2c(=O)[nH]c(-c3cc(C)c(OCCO)c(C)c3)nc2c1 [Form CS9, 2-[4-(2-hydroxyethoxy)-3,5-dimethylphenyl]-5,7-dimethoxyquinazolin-4(3H)-one] | 170 µg/mL (≈ 459 µM) | 200 µg/mL (≈ 540 µM) | 300 µg/mL (≈ 810 µM) | 0.18% | doesn't change; also recorded: No form change | at least 10 months | at least 10 months | 130 µg/mL (≈ 351 µM) | 310 µg/mL (≈ 837 µM) | 370 µg/mL (≈ 999 µM) | almost non hygroscopic | Form change and purity decrease after storage ([3]; 25° C./60% RH, 10 months): No form change and obvious purity decrease; Form change and purity decrease after storage ([3]; 40° C./75% RH, 10 months): No form change and obvious purity decrease

The next lines start with results.

Row | Solubility FeSSIF ([1]; equilibrated 1 h) | Solubility FeSSIF ([1]; equilibrated 24 h) | Solubility SGF [1, 4] | Weight Gain under 80% Relative Humidity [2] | Form change after DVS test (XRPD) [2] | Time the form is stable when stored ([3]; 25° C./60% RH) | Time the form is stable when stored ([3]; 40° C./75% RH) | Solubility FeSSIF ([1]; equilibrated 4 h) | Solubility SGF [1, 5] | Solubility SGF [1, 6] | Structure (SMILES) | Hygroscopicity class [2] | other results
5 |  |  | 710 µg/mL (≈ 1920 µM) |  |  | at least 6 weeks | at least 6 weeks |  | 650 µg/mL (≈ 1750 µM) | 650 µg/mL (≈ 1750 µM) | COc1cc(OC)c2c(=O)[nH]c(-c3cc(C)c(OCCO)c(C)c3)nc2c1 [Form CS11, 2-[4-(2-hydroxyethoxy)-3,5-dimethylphenyl]-5,7-dimethoxyquinazolin-4(3H)-one] |  | Form change and purity decrease after storage ([3]; 25° C./60% RH, 6 weeks): No form change and obvious purity decrease; Form change and purity decrease after storage ([3]; 40° C./75% RH, 6 weeks): No form change and obvious purity decrease
6 | 130 µg/mL (≈ 351 µM) | 140 µg/mL (≈ 378 µM) | 350 µg/mL (≈ 945 µM) |  |  |  |  | 140 µg/mL (≈ 378 µM) | 310 µg/mL (≈ 837 µM) | 330 µg/mL (≈ 891 µM) | COc1cc(OC)c2c(=O)[nH]c(-c3cc(C)c(OCCO)c(C)c3)nc2c1 [Form CS13, 2-[4-(2-hydroxyethoxy)-3,5-dimethylphenyl]-5,7-dimethoxyquinazolin-4(3H)-one] |  | 
7 | 190 µg/mL (≈ 513 µM) | 220 µg/mL (≈ 594 µM) | 440 µg/mL (≈ 1190 µM) |  |  | at least 2 weeks | at least 2 weeks | 160 µg/mL (≈ 432 µM) | 410 µg/mL (≈ 1110 µM) | 510 µg/mL (≈ 1380 µM) | COc1cc(OC)c2c(=O)[nH]c(-c3cc(C)c(OCCO)c(C)c3)nc2c1 [Form CS20, 2-[4-(2-hydroxyethoxy)-3,5-dimethylphenyl]-5,7-dimethoxyquinazolin-4(3H)-one] |  | Form change and purity decrease after storage ([3]; 25° C./60% RH, 2 weeks): No form change and obvious purity decrease; Form change and purity decrease after storage ([3]; 40° C./75% RH, 2 weeks): No form change and obvious purity decrease

Source: patent US10752595B2, “Crystalline forms of a bromodomain and extraterminal protein inhibitor drug, processes for preparation thereof, and use thereof” (Crystal Pharmaceutical (Suzhou) Co., Ltd., priority 2016, dated 2020)
